# Where a chain is given by its changes, count along the chain named. Read-outs that look alike come from different tables or passages of the source. Marks after values point to notes of the source that are not given here.
# Experiments:
# E. coli DHFR [1] = details: cited from earlier work
# S. pneumoniae DHFR [2] = biological target: T1, S. pneumoniae DHFR (Streptococcus pneumoniae serotype 4, UniProt Q54801, A78V/I100L/K60Q/V77A); details: pH 7.0, MTEN buffer, 25 °C
# T1 sequence (Q54801 1-168 K60Q/V77A/A78V/I100L): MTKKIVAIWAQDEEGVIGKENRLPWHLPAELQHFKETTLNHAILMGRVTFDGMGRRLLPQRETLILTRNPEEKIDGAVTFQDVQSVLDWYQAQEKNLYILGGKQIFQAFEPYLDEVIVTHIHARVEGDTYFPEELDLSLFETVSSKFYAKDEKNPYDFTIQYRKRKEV
# Sp9 mutant DHFR [3] = biological target: Sp9 mutant DHFR (Streptococcus pneumoniae serotype 4, UniProt Q54801, A149T/E133A/H26Y/I100V/Q81H/Q91S); details: pH 7.0, MTEN buffer, 25 °C
# S. pneumoniae DHFR [4] = biological target: T1, S. pneumoniae DHFR; assay: Stopped-flow binding kinetics; details: MTEN buffer, 25 °C, relaxation method
# S. pneumoniae DHFR [5] = biological target: T1, S. pneumoniae DHFR; assay: Equilibrium fluorescence quenching titration, spDHFR; format: binding; details: read-out: Kd (NADPH), pH 7.0, MTEN buffer
# Sp9 mutant DHFR [6] = biological target: T2, Sp9 mutant DHFR (Streptococcus pneumoniae serotype 4, UniProt Q54801, A149T/E133A/H26Y/I100V/Q81H/Q91S); assay: Equilibrium fluorescence quenching titration, Sp9; format: binding; details: read-out: Kd (NADPH), pH 7.0, MTEN buffer
# T2 sequence (Q54801 1-168 H26Y/Q81H/Q91S/I100V/E133A/A149T): T1 sequence (Q54801 1-168 K60Q/V77A/A78V/I100L) with H26Y, Q60K, A77V, V78A, Q81H, Q91S, L100V, E133A, A149T
# E. coli DHFR (wt) = details: read-out: Kd (NADPH); pH 7.0; cited from earlier work
# E. coli DHFR [7] = details: cited from earlier work; remark: listed apart in the source
# Bacterial DHFRs = details: cited from earlier work
smiles,measurement,setting,value
"Nc1nc(=O)c2c([nH]1)NCC(CNc1ccc(C(=O)N[C@@H](CCC(=O)O)C(=O)O)cc1)=N2 [H2F, 7,8-dihydrofolate]",Km,E. coli DHFR [1]; read-out: KM (H2F),0.7 µM
same,Km,S. pneumoniae DHFR [2]; read-out: KM (H2F),4.4 ± 0.95 µM
same,Km,Sp9 mutant DHFR [3]; read-out: KM (H2F),< 0.63 µM
"NC(=O)C1=CN([C@@H]2O[C@H](COP(=O)(O)OP(=O)(O)OC[C@H]3O[C@@H](n4cnc5c(N)ncnc54)[C@H](OP(=O)(O)O)[C@@H]3O)[C@@H](O)[C@H]2O)C=CC1 [NADPH, nicotinamide adenine dinucleotide phosphate (reduced form)]",koff (NADPH),S. pneumoniae DHFR [4],18.0 ± 3.2 s⁻¹
same,kon (NADPH),S. pneumoniae DHFR [4],11.9 ± 1.4 μM ^−1s^−1
same,Kd,S. pneumoniae DHFR [5],210 ± 13 nM
same,Kd,Sp9 mutant DHFR [6],160 ± 58 nM
same,Km,E. coli DHFR [1]; read-out: KM (NADPH),4.8 µM
same,Kd,E. coli DHFR (wt),330 nM
same,Km,S. pneumoniae DHFR [2]; read-out: KM (NADPH),15.7 ± 4.6 µM
same,Km,Sp9 mutant DHFR [3]; read-out: KM (NADPH),0.75 ± 0.3 µM
same,koff (NADPH),E. coli DHFR [7],3.5 ^* s^−1
same,kon (NADPH),E. coli DHFR [7],20.0 ^* μM ^−1s^−1
COc1cc(Cc2cnc(N)nc2N)cc(OC)c1OC [Trimethoprim],TMP binding,Bacterial DHFRs; bacterial DHFRs,0.08 nM
same,tighter binding to bacterial DHFRs than human DHFR,Bacterial DHFRs; bacterial versus human DHFR,2500 fold

# — publication PMC3773979 (Biochemistry, 2010)
